The source made the active and inactive calls. No cut-off for these calls is given here.
Tests used:
Acetylcholinesterase [1] = molecular target: T1, Acetylcholinesterase (Electrophorus electricus, UniProt O42275); assay: Non-competitive inhibition of electric eel AChE by Dixon plot analysis
[2] = molecular target: Amyloid-beta precursor protein (Homo sapiens) (UniProt P05067); assay: Inhibition of self-induced Amyloid beta (1 to 42 residues) (unknown origin) aggregation at Abeta(1 to 42) to compound concentration ratio of 10:5 to 10:20 uM incubated for 48 hrs by ThT fluorescence method
Rattus norvegicus [3] = assay: Antialzheimer activity against Abeta(1 to 42)-induced coginitive deficit Wistar rat model assessed as increase in time spent in the platform zone at 10 mg/kg, po administered for 7 days by Morris water maze test; format: functional, organism-based; details: time 7.0 day
in vitro = details: PAMPA
Description: Permeability of the compound at 25 ug/ml incubated or 18 hrs by PAMPA-BBB assay

[4] = Selectivity index, ratio of IC50 for equine serum BuChE to IC50 for electric eel AChE
[5] = Antagonist activity at GluN1-1a/GluN2C (unknown origin) expressed in xenopus laevis oocytes assessed as inhibition of glycine/glutamate-induced channel current incubated for 20s measured at holding potential of -70 mV by two-electrode voltage clamp technique; format: cell-based; details: Homo sapiens, Oocyte
[6] = molecular target: T2, Acetylcholinesterase (Rattus norvegicus) (UniProt P37136); assay: Ex vivo inhibition of AChE activity in brain of scopalamine-induced amnesia Wistar rat model at 10 mg/kg, po administered for 7 days and on day 7 administered with scopolamine at 30 mins before drug administration; format: functional, organism-based; details: time 7.0 day
T2 sequence (whole entry): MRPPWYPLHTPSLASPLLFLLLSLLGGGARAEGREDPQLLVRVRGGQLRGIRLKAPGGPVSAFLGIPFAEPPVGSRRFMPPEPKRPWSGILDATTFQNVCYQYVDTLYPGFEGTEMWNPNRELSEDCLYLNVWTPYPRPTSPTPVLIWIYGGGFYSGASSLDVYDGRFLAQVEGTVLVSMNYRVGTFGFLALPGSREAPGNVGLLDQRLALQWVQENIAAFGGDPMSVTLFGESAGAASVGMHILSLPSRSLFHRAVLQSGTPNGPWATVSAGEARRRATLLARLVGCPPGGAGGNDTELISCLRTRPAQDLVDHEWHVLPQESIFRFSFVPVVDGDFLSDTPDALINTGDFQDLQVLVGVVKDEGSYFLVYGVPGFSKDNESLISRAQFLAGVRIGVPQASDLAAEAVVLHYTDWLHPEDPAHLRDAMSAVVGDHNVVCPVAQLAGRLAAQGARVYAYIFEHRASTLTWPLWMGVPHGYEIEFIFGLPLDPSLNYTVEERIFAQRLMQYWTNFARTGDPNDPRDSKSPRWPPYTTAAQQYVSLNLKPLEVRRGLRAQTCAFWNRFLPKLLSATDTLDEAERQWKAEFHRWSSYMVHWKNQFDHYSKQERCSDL

Acetylcholinesterase [7] = molecular target: T1, Acetylcholinesterase; assay: Inhibition of electric eel AChE using acetylthiocholine iodide as substrate preincubated with enzyme for 10 mins followed by substrate addition and measured every 1 min for 20 mins by spectrophotometric analysis
SH-SY5Y = assay: Neuroprotective activity against human SH-SY5Y cells assessed as reduction of Abeta(1 to 42)-induced cytotoxicity upto 10 uM pretreated with Abeta42 for 24 hrs followed by incubation with compound for 72 hrs by MTT assay; format: functional, cell-based
Cholinesterase = Cholinesterase (Equus caballus, UniProt P81908); assay: Inhibition of equine serum BuChE using butyrylthiocholine iodide as substrate preincubated with enzyme for 10 mins followed by substrate addition and measured every 1 min for 20 mins by spectrophotometric analysis
Acetylcholinesterase [8] = molecular target: T3, Acetylcholinesterase (Homo sapiens, UniProt P22303); assay: Inhibition of human AChE
HEK-293T [9] = assay: Cytotoxicity against HEK293T cells assessed as reduction in cell viability at 0.3 to 30 uM measured after 44 hrs by WST-1 assay; format: toxicity, cell-based; details: human, dose 0.3-30 µM
Rattus norvegicus [10] = assay: (§1) Antialzheimer activity against scopalamine-induced amnesia Wistar rat model assessed as inhibition of cognition impairment by measuring increase in spontaneous alterations at 2.5 to 10 mg/kg, po administered for 7 days and on day 7 administered with scopolamine at 30 mins before drug administration by Y-maze test; format: functional, organism-based; details: dose 2.5-10 mg/kg, time 7.0 day
Rattus norvegicus [11] = assay: as §1, with “at” for “at 2.5 to”; format: functional, organism-based; details: time 7.0 day
[12] = Antagonist activity at GluN1-1b/GluN2C (unknown origin) expressed in xenopus laevis oocytes assessed as inhibition of glycine/glutamate-induced channel current incubated for 20s measured at holding potential of -70 mV by two-electrode voltage clamp technique; format: cell-based; details: Homo sapiens, Oocyte
Rattus norvegicus [13] = assay: Antialzheimer activity against Abeta(1 to 42)-induced coginitive deficit Wistar rat model assessed as increase in total number of platform crossings at 10 mg/kg, po administered for 7 days by Morris water maze test; format: functional, organism-based; details: time 7.0 day
HEK-293T [14] = assay: Cytotoxicity against HEK293T cells assessed as reduction in cell viability at 100 uM measured after 44 hrs by WST-1 assay; format: toxicity, cell-based; details: human
[15] = Antagonist activity at GluN1-1b/GluN2D (unknown origin) expressed in xenopus laevis oocytes assessed as inhibition of glycine/glutamate-induced channel current incubated for 20s measured at holding potential of -70 mV by two-electrode voltage clamp technique; format: cell-based; details: Homo sapiens, Oocyte
[16] = Antagonist activity at GluN1-1b/GluN2A (unknown origin) expressed in xenopus laevis oocytes assessed as inhibition of glycine/glutamate-induced channel current incubated for 20s measured at holding potential of -70 mV by two-electrode voltage clamp technique; format: cell-based; details: Homo sapiens, Oocyte
[17] = Antagonist activity at GluN1-1b/GluN2B (unknown origin) expressed in xenopus laevis oocytes assessed as inhibition of glycine/glutamate-induced channel current incubated for 20s measured at holding potential of -70 mV by two-electrode voltage clamp technique; format: cell-based; details: Homo sapiens, Oocyte
[18] = Antagonist activity at GluN1-1a/GluN2D (unknown origin) expressed in xenopus laevis oocytes assessed as inhibition of glycine/glutamate-induced channel current incubated for 20s measured at holding potential of -70 mV by two-electrode voltage clamp technique; format: cell-based; details: Homo sapiens, Oocyte
[19] = molecular target: T2, Acetylcholinesterase (Rattus norvegicus); assay: Ex vivo inhibition of AChE activity in brain of scopalamine-induced amnesia Wistar rat model at 2.5 to 10 mg/kg, po administered for 7 days and on day 7 administered with scopolamine at 30 mins before drug administration; format: functional, organism-based; details: dose 2.5-10 mg/kg, time 7.0 day
[20] = molecular target: Amyloid-beta precursor protein (Homo sapiens) (UniProt P05067); assay: Inhibition of AChE-induced Amyloid beta (1 to 42 residues) (unknown origin) aggregation at Abeta(1 to 42) to compound concentration ratio of 10:5 to 10:20 uM incubated for 48 hrs by ThT fluorescence method
[21] = Antagonist activity at GluN1-1a/GluN2B (unknown origin) expressed in xenopus laevis oocytes assessed as inhibition of glycine/glutamate-induced channel current incubated for 20s measured at holding potential of -70 mV by two-electrode voltage clamp technique; format: cell-based, Homo sapiens; details: Oocyte
[22] = Antagonist activity at GluN1-1a/GluN2A (unknown origin) expressed in xenopus laevis oocytes assessed as inhibition of glycine/glutamate-induced channel current incubated for 20s measured at holding potential of -70 mV by two-electrode voltage clamp technique; format: cell-based; details: Homo sapiens, Oocyte
Rattus norvegicus [23] = assay: Antialzheimer activity against Abeta(1 to 42)-induced coginitive deficit Wistar rat model assessed as increase in time spent in the platform zone at 5 mg/kg, po administered for 7 days by Morris water maze test; format: functional, organism-based; details: time 7.0 day
Rattus norvegicus [24] = assay: Antialzheimer activity against Abeta(1 to 42)-induced coginitive deficit Wistar rat model assessed as increase in total number of platform crossings at 5 mg/kg, po administered for 7 days by Morris water maze test; format: functional, organism-based; details: time 7.0 day
Rattus norvegicus [25] = assay: as §1, with “5” for “2.5 to 10”; format: functional, organism-based; details: time 7.0 day
Acetylcholinesterase [26] = molecular target: T3, Acetylcholinesterase; assay: Inhibition of AChE (unknown origin)
[27] = Antagonist activity at NMDA receptor (unknown origin); set-up: species or system Homo sapiens
Homo sapiens = species on record: Homo sapiens; assay: Antagonist activity at NMDA receptor (unknown origin) relative to control; details: filed as antagonist, concentration not given here

Cholinesterase, sequence (P81908 whole entry): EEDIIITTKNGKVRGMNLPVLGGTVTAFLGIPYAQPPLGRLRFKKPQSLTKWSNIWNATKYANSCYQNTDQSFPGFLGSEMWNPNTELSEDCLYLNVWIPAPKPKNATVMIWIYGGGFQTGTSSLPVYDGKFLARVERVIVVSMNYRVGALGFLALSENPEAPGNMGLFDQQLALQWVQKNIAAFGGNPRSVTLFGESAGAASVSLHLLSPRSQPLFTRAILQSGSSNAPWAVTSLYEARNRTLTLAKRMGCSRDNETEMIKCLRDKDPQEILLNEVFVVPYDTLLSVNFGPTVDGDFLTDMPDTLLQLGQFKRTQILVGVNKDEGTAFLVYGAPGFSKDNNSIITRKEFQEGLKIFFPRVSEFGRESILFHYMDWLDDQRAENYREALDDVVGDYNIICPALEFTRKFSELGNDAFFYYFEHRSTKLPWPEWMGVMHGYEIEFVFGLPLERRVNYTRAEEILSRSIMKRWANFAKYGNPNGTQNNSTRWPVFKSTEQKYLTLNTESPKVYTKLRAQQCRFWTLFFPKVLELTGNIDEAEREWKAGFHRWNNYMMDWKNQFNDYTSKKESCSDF
T1 sequence (O42275 whole entry, the tested form may be a part): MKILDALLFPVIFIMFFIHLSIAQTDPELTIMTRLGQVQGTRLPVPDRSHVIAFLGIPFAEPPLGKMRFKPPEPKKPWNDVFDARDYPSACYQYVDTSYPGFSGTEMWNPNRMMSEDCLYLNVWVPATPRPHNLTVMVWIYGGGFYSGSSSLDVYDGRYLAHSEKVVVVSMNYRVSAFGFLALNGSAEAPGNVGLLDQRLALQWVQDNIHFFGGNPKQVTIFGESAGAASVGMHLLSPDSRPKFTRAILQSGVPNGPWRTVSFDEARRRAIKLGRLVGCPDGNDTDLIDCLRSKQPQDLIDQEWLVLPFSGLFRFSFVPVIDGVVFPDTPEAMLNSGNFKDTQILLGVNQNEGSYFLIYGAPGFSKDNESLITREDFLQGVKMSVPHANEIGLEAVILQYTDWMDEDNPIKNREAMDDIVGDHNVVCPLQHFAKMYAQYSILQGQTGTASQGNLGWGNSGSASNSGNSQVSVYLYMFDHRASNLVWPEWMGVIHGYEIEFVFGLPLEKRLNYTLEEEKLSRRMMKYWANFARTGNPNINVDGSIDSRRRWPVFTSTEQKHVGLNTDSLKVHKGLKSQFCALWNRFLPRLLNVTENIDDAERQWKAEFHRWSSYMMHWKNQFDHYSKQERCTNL
T3 sequence (P22303 whole entry): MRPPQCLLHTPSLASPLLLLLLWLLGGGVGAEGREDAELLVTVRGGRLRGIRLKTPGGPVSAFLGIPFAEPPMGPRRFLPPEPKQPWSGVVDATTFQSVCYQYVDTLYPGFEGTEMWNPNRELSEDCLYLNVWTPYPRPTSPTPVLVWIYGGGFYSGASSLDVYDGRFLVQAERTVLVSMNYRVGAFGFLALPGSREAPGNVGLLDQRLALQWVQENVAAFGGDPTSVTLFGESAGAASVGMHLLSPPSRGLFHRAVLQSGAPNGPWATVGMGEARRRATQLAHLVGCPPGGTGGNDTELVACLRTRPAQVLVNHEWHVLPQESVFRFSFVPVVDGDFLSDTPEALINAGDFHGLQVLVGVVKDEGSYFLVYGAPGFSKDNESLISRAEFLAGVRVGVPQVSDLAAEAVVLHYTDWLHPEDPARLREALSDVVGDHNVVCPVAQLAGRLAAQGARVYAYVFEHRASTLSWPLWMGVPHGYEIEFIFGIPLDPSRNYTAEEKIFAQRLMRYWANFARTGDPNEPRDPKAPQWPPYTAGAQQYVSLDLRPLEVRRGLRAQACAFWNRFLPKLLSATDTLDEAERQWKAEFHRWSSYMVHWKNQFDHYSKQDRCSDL
Amyloid-beta precursor protein (Homo sapiens), sequence (P05067 whole entry, the tested form may be a part): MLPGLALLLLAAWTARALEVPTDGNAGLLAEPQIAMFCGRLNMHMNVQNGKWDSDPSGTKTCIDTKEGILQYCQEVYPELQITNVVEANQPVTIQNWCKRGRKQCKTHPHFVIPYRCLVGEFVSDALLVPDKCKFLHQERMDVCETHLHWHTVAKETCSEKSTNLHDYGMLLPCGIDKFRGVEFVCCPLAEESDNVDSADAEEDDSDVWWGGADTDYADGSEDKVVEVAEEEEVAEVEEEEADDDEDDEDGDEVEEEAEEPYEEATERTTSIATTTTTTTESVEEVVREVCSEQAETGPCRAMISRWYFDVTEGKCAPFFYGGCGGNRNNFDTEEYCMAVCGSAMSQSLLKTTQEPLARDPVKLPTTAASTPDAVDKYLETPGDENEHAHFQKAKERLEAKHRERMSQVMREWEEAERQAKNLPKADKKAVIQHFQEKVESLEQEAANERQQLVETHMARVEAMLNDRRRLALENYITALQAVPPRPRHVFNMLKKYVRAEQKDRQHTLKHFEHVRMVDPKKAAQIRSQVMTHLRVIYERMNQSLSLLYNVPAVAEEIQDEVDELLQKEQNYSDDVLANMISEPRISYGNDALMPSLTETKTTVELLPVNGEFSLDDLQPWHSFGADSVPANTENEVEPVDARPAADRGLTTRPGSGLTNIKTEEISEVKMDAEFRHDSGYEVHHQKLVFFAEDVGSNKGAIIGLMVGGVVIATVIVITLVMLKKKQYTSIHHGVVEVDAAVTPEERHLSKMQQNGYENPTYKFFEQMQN

| Compound | Papp at 18 h, 25 ug/ml (in vitro) [×10⁻⁶ cm/s] | Ratio IC50 [4] | IC50 (Acetylcholinesterase [7]) [µM] | IC50 (Cholinesterase) [µM] | IC50 [21] [µM] | further results |
| --- | --- | --- | --- | --- | --- | --- |
| Brc1ccc(Cn2cc(CNC34CC5CC(CC(C5)C3)C4)nn2)cc1 | 8.75 | 29.6 | 0.086 | 2.55 | 3.88 | Ki (Acetylcholinesterase [1]): 0.026 µM; inhibition [2]: Dose-Dependent Effect; Activity (Rattus norvegicus [3]): Active; IC50 [5]: 90.2 µM; inhibition [6]: Active; Activity (SH-SY5Y): Active; IC50 (Acetylcholinesterase [8]): 0.092 µM; Activity (HEK-293T [9]): Non-Toxic; Activity (Rattus norvegicus [10]): Dose-Dependent Effect; Activity (Rattus norvegicus [11]): Active; IC50 [12]: 45.1 µM; Activity (Rattus norvegicus [13]): Active; Activity (HEK-293T [14]): Toxic; IC50 [15]: 99.5 µM; IC50 [16]: 36.5 µM; IC50 [17]: 3 µM; IC50 [18]: 112 µM; inhibition [19]: Dose-Dependent Effect; inhibition [20]: Dose-Dependent Effect; IC50 [22]: 47.4 µM |
| O=[N+]([O-])c1ccc(Cn2cc(CNC3CCCCCC3)nn2)cc1 | 6.31 | 4.14 | 4.64 | 19.2 | 116 |  |
| c1ccc(Cn2cc(CNC34CC5CC(CC(C5)C3)C4)nn2)cc1 | 6.95 | 13.1 | 0.36 | 4.72 |  |  |
| Cc1ccc(Cn2cc(CNC3CCCCCC3)nn2)cc1 | 7.35 | 15.8 | 1.22 | 19.3 | 63.6 |  |
| COc1cc2c(cc1OC)C(=O)C(CC1CCN(Cc3ccccc3)CC1)C2 (stereo not given) |  |  |  |  |  | Activity (Rattus norvegicus [23]): Active; Activity (Rattus norvegicus [24]): Active; Activity (Rattus norvegicus [25]): Active |
| Cc1ccc(-c2cn(Cc3ccc4ccccc4c3)nn2)cc1C(=O)NCCN1CCOCC1 |  |  |  |  |  | IC50 (Acetylcholinesterase [26]): 7.23 µM |
| c1ccc(CNC23OC4C5C6CC(C7C6C4C72)C53)cc1 (stereo not given) |  |  |  |  |  | IC50 [27]: 2.98 µM |
| CC(C)c1ccc(Cn2cc(CNC3CCCCCC3)nn2)cc1 | 7.24 | 10.3 | 1.52 | 15.7 | 217 |  |
| Fc1ccc(Cn2cc(CNC3CCCCCC3)nn2)cc1 | 8.42 | 5.75 | 1.82 | 10.5 | 97.3 |  |
| CC(C)c1ccc(Cn2cc(CNC34CC5CC(CC(C5)C3)C4)nn2)cc1 | 7.63 | 9.79 | 0.799 | 7.83 | 79.5 |  |
| c1ccc(CCNC23CC4CC(CC(C4)C2)C3)cc1 |  |  |  |  |  | inhibition (Homo sapiens): 89.5% |
| O=[N+]([O-])c1ccc(Cn2cc(CNC34CC5CC(CC(C5)C3)C4)nn2)cc1 | 6.83 | 5.93 | 1.61 | 9.54 | 21.8 |  |

Reference: ChEMBL document CHEMBL5625199, “Discovery of triazole-bridged aryl adamantane analogs as an intriguing class of multifunctional agents for treatment of Alzheimer's disease” (Eur J Med Chem, 2023)
